Reference: PubChem BioAssay AID651652 (NMMLSC, 2012)
The source made the active and inactive calls.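 The calls were made as follows: active = viability at the highest tested concentration below 50%; inactive = the rest.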

What was measured:
[1] = tested on: K562 vector control viability, CellTiter-Glo, 18 h; experiment: concentration-response toxicity in K562 empty-vector line, CellTiter-Glo luminescence, ABCB6 inhibitor project counterscreen, PowderSet01 powders (AID 651652)
[2] = as above; details: K562 vector control viability, CellTiter-Glo, 18 h; at 100 µM (top of the series)

Row | SMILES | EC50 [1] [µM] | viability [2]
1 | CCc1ccc(NC(=O)c2nc(S(=O)(=O)Cc3ccccc3)ncc2Cl)cc1 | 4.51 | –
2 | CCOc1ccccc1NC(=O)c1nc(S(=O)(=O)Cc2cccc(C)c2)ncc1Cl | 11.9 | –
3 | CC(=O)Nc1ccc(NC(=O)c2nc(S(=O)(=O)Cc3cccc(C)c3)ncc2Cl)cc1 | – | 51.9% (inactive)
4 | CC(=O)Nc1ccc(NC(=O)c2nc(S(=O)(=O)Cc3ccccc3)ncc2Cl)cc1 | – | 58% (inactive)
